Laboratory results: patent publication US5821224A, “Antimicrobial peptides from bovine neutrophils” (Regents of the University of California, priority 1994, dated 1998)
Entries after “also recorded” stand apart in the source; their conditions may differ. Bridges are numbered along the chain shown (N, C = ends). Where no end group is shown, it is not given here. [ ]: non-standard residue; d: D form. pGlu = O=C1CC[C@@H](C(=O)O)N1

Columns and labels:
[1] = tested on: Escherichia coli ML35; assay: Radial diffusion antibacterial assay, E. coli ML35; type: cell-based; conditions: 5 μl of peptide, 10 to 300 μg/ml, FIG. 7
Protocol: (§1) FIG. 7. Antibacterial activities of purified beta defensins. Nutrient agar plates seeded with E. coli ML35 (.oval-solid.) or S. aureus 502A (.smallcircle.) were used to assess antibacterial activity of 13 neutrophil beta-defensins in addition to rabbit defensin NP-1, bactenecin dodecapeptide, and indolicidin. Activity is expressed as the diameter of clearing (mm) resulting from the application of 5 μl of peptide at the concentrations shown.
(§2) Antimicrobial assay. Escherichia coli ML35 and Staphylococcus aureus 502A were utilized in a radial diffusion assay recently described by Lehrer et al. (J. Immunol. Meth. 167-173 (1991)). Bacteria were grown to mid-log phase in trypticase soy broth (TSB), diluted into 10 ml of warm (43° C.) 1% agarose containing 3 mg of TSB, buffered with 10 mM sodium phosphate, pH 7.4. Five μl of each peptide solution was pipetted into wells formed with a 4 mm cork bored and allowed to incubate at 37° C. for 3-4 hours. Plates were then overlaid with 10 ml of sterile 1% agar containing 2×TSB. Following incubation for 18 to 24 hours, the diameter of the clear zone surrounding each well was measured using a magnified transilluminator.
(§3) Antimicrobial activity of beta-defensins. The antibacterial activity of each beta-defensin was evaluated using Staphylococcus aureus 502A and Escherichia coil ML35 as test organisms. Using a sensitive radial diffusion assay, each peptide was tested against the two bacterial organisms with beta-defensin concentrations ranging from 10 to 300 μg/ml. The data presented in FIG. 7 reveal the dose-dependent activity of each peptide as measured by the size of the clear zone surrounding the sample well. In most cases, the log of the peptide concentration was linearly related to the diameter of the growth-free zone. […] In most cases, the zone of clearing was greater against E. coli than S. aureus.

[2] = tested on: Staphylococcus aureus 502A; assay: Radial diffusion antibacterial assay, S. aureus 502A; type: cell-based; conditions: 5 μl of peptide, 10 to 300 μg/ml, FIG. 7
Protocol: as §1, §2, §3

[3] = tested on: E. coli; conditions: background, earlier report; cited from earlier work
[4] = tested on: S. aureus; conditions: background, earlier report; cited from earlier work
[5] = tested on: Candida albicans 16820; type: cell-based; conditions: 0 to 50 μg/ml, 60 minutes, FIG. 15
Protocol: (§4) Candida albicans 16820 and Cryptococcus neoformans 271A were grown with shaking for 24 hours or days, respectively, at 37° C. in Sabouraud Dextrose Broth (SDB, DIFCO). To obtain midlogarithmic phase organisms, 1.0 ml of overnight culture was inoculated into 50 ml of SDB and incubated for 3 hours (C. albicans) or overnight (C. neoformans) with shaking. The cultures were centrifuged at 10,000 rpm for 10 minutes at 4° C., washed with cold 10 mM phosphate buffer, pH 7.4, and resuspended in cold buffer to a concentration of 1×10^7 cells/ml. The fungicidal assay mixture contained 30 1 of the phosphate buffer, 10 μl (1×10^5 cells) of the fungal stock suspension, and 10 μl of peptide giving final peptide concentrations of 0 to 50 μg/ml. Incubations were carried out at 37° C. for 60 minutes, after which a 30 μl aliquot was removed and diluted 10, 100, and 1000-fold. Duplicate 100 μl samples of each dilution were spread onto SDB plates and incubated for 18 hours at 37° C. Plates were incubated for 1 or 2 days at 37° C. Surviving organisms were quantitated by colony counting using a Darkfield Colony Counter (Quebec).

[6] = tested on: Cryptococcus neoformans 271A; assay: Fungicidal assay (colony counting), Cryptococcus neoformans 271A; type: cell-based; conditions: 60 minutes, FIG. 16; for fungicidal potency against C. neoformans: 0 to 50 μg/ml; for fungicidal effectiveness against C. neoformans at highest concentration: 50 μg/ml
Protocol: as §4

[7] = tested on: E. coli ML35; assay: Bactericidal assay (colony counting), E. coli ML35; type: cell-based, Escherichia coli; conditions: below 50 μg/ml, 30 minutes, FIG. 14
Protocol: A 1:500 dilution of overnight cultures of E. coli ML35 and S. aureus 502A was incubated with shaking for 2.5 to 3 hours at 37° C. in trypticase soy broth (TSB). The bacteria were centrifuged at 10,000 rpm for 10 minutes at 4 c, washed with cold 10 mM sodium phosphate buffer, pH 7.4 and resuspended in cold phosphate buffer to a concentration of 1×10^7 cells/ml. Solutions of various concentrations of BNBDs were made up in 10 mM sodium phosphate buffer, pH 7.4. The bactericidal assay mixture contained 30 μl of the phosphate buffer, 10 μl (1×10^5 cells) of the bacterial stock solution, and 10 μl of peptide giving final peptide concentrations of 0 to 50 μg/ml. Incubations were carried out at 37° C. for 30 minutes, after which a 30 μl aliquot was removed and diluted 10, 100, and 1000-fold. Duplicate 100 μl samples of each dilution were spread into TSB plates and incubated for 18 hours at 37° C. Colonies were counted with the Darkfield Colony Counter (Quebec).

## CC[C@H](C)[C@H](N)C(=O)N[C@@H](CC(C)C)C(=O)N1CCC[C@H]1C(=O)N[C@@H](Cc1c[nH]c2ccccc12)C(=O)N[C@@H](CCCCN)C(=O)N[C@@H](Cc1c[nH]c2ccccc12)C(=O)N1CCC[C@H]1C(=O)N[C@@H](Cc1c[nH]c2ccccc12)C(=O)N[C@@H](Cc1c[nH]c2ccccc12)C(=O)N1CCC[C@H]1C(=O)N[C@@H](Cc1c[nH]c2ccccc12)C(=O)N[C@@H](CCCNC(=N)N)C(=O)N[C@@H](CCCNC(=N)N)C(N)=O [indolicidin, reference compound]
[1]
  antibacterial activity (diameter of clearing) against E. coli: the most active peptide against E. coli
[2]
  antibacterial activity (diameter of clearing) against S. aureus: nearly as active as rabbit NP-1
[3]
  bactericidal activity against E. coli: potent bactericidal activity
[4]
  bactericidal activity against S. aureus: potent bactericidal activity

## BNBD-1: bovine neutrophil beta-defensin 1, 38 residues, purified from neutrophil granules; sequence in FIG. 5 (SEQ ID NO: 1) (DFASCHTNGGICLPNRCPGHMIQIGICFRPRVKCCRSW; not fully specified (bridges); ends and bridges not checked)
[2]
  antibacterial activity (diameter of clearing) against S. aureus: all but BNBD-1 and BNBD-5 were active

## BNBD-2: bovine neutrophil beta-defensin 2, 40 residues; identical to BNBD-3 without the pyroglutamyl-glycine extension (SEQ ID NO: 2) (VRNHVTCRINRGFCVPIRCPGRTRQIGTCFGPRIKCCRSW; disulfide 14-29, 19-37, 7-36)
[1]
  antibacterial activity (diameter of clearing) against E. coli: equivalent antibacterial activity
[2]
  antibacterial activity (diameter of clearing) against S. aureus: equivalent antibacterial activity

## BNBD-5: bovine neutrophil beta-defensin 5, 40 residues (SEQ ID NO: 5)
[2]
  antibacterial activity (diameter of clearing) against S. aureus: all but BNBD-1 and BNBD-5 were active

## BNBD-7: bovine neutrophil beta-defensin 7, 40 residues (SEQ ID NO: 7)
[1]
  antibacterial activity (diameter of clearing) against E. coli: most active beta-defensins
[2]
  antibacterial activity (diameter of clearing) against S. aureus: most active beta-defensins

## BNBD-8: bovine neutrophil beta-defensin 8, 38 residues; identical to BNBD-9 without the pyroglutamyl-glycine extension (SEQ ID NO: 8)
[1]
  antibacterial activity (diameter of clearing) against E. coli: differ in antibacterial potency
[2]
  antibacterial activity (diameter of clearing) against S. aureus: differ in antibacterial potency

## BNBD-9: bovine neutrophil beta-defensin 9, 40 residues, N-terminal pyroglutamyl (SEQ ID NO: 9) ([pGlu]GVRNFVTCRINRGFCVPIRCPGHRRQIGTCLGPQIKCCR; also: cyclic, type of ring not given here)
[1]
  antibacterial activity (diameter of clearing) against E. coli: most active beta-defensins; also recorded: the greater in vitro activity
[2]
  antibacterial activity (diameter of clearing) against S. aureus: most active beta-defensins; also recorded: the greater in vitro activity

## BNBD-11: bovine neutrophil beta-defensin 11, 38 residues (SEQ ID NO: 11) (GPLSCRRNGGVCIPIRCPGPMRQIGTCFGRPVKCCRSW; disulfide 12-27, 17-35, 5-34; ends not checked)
[5]
  fungicidal activity against C. albicans: completely inactive
[6]
  fungicidal potency against C. neoformans: substantially less active

## BNBD-12: bovine neutrophil beta-defensin 12, 38 residues; disulfide connectivities determined (SEQ ID NO: 12) (GPLSCGRNGGVCIPIRCPVPMRQIGTCFGRPVKCCRSW; disulfide 12-27, 17-35, 5-34)
[1]
  antibacterial activity (diameter of clearing) against E. coli: most active beta-defensins; also recorded: approximately equal
[2]
  antibacterial activity (diameter of clearing) against S. aureus: most active beta-defensins; also recorded: approximately equal

## H-SGISGPLSCGRNGGVCIPIRCPVPMRQIGTCFGRPVKCCRSW (disulfide 9-38, 16-31, 21-39) [BNBD-13]
[1]
  antibacterial activity (diameter of clearing) against E. coli: most active beta-defensins; also recorded: approximately equal
[2]
  antibacterial activity (diameter of clearing) against S. aureus: most active beta-defensins; also recorded: approximately equal
[6]
  fungicidal effectiveness against C. neoformans at highest concentration: equally effective

## [pGlu]GVRNHVTCRINRGFCVPIRCPGRTRQIGTCFGPRIKCCRSW (disulfide 9-38, 16-31, 21-39) [BNBD-3]
[1]
  antibacterial activity (diameter of clearing) against E. coli: equivalent antibacterial activity
[2]
  antibacterial activity (diameter of clearing) against S. aureus: equivalent antibacterial activity
[6]
  fungicidal potency against C. neoformans: the most potent
[7]
  bactericidal potency against E. coli at lower concentrations: the greatest

## [pGlu]RVRNPQSCRWNMGVCIPFLCRVGMRQIGTCFGPRVPCCRR (disulfide 9-38, 16-31, 21-39) [BNBD-4]
[6]
  fungicidal effectiveness against C. neoformans at highest concentration: equally effective
